{"source": "patent US9365522B2", "about": "“Pyrazole amide derivative” (AMGEN INC., priority 2015, dated 2016)", "molecular_target": "T1, human RORγ-LBD (Homo sapiens, UniProt P51449)", "T1 construct": "made in house; host or cells: E. coli (BL-21)", "T1 sequence (P51449 262-518)": "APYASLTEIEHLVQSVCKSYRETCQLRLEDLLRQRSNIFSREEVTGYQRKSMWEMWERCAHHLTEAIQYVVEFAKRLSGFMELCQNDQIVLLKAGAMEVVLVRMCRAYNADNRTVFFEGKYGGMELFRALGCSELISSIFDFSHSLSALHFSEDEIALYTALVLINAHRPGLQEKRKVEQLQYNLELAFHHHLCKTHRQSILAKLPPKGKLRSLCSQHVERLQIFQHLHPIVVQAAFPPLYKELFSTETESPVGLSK", "test": "ROR gamma coactivator peptide recruitment Alphascreen assay (RORγ-LBD binding to GRIP1 coactivator peptide)", "format": "biochemical", "conditions": "5 nM human RORγ-LBD, 30 nM 7-β-hydroxycholesterol, 50 nM biotinylated GRIP1 coactivator peptide, overnight incubation at room temperature; read-out: result (pIC50, RORγ coactivator peptide recruitment Alphascreen assay) (converted)", "summary_of_the_method": "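His/Flag-tagged human RORγ-LBD (aa 262-518, E. coli-expressed, 5 nM) with agonist 7-β-hydroxycholesterol (30 nM) and biotinylated GRIP1 LXXLL peptide (50 nM) in HEPES pH 7.4 buffer, 2.5% DMSO. Compound 1-in-2 dilutions; Alphascreen bead signal read after overnight incubation at room temperature; pIC50 calculated.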"}
{"molecule": "C[C@]1(C(=O)O)CC[C@H](n2ncc(C(=O)N(CC(=O)c3c(Cl)cncc3Cl)[C@H]3CCC34CCC4)c2C(F)(F)F)CC1", "note": "[Example 748, trans-4-(4-((2-(3,5-dichloro-4-pyridinyl)-2-oxoethyl)((1S)-spiro[3.3]hept-1-yl)carbamoyl)-5-(trifluoromethyl)-1H-pyrazol-1-yl)-1-methylcyclohexanecarboxylic acid]", "values": [{"measurement": "IC50", "value": 3.39, "unit": "nM"}]}
{"molecule": "C[C@]1(C(=O)O)CC[C@H](n2ncc(C(=O)N(CC(=O)c3c(Cl)cncc3Cl)[C@@H]3CCC34CCC4)c2C(F)(F)F)CC1", "note": "[Example 749, trans-4-(4-((2-(3,5-dichloro-4-pyridinyl)-2-oxoethyl)((1R)-spiro[3.3]hept-1-yl)carbamoyl)-5-(trifluoromethyl)-1H-pyrazol-1-yl)-1-methylcyclohexanecarboxylic acid]", "values": [{"measurement": "IC50", "value": 60.3, "unit": "nM"}]}
{"molecule": "Cc1cc(Cl)c(C(=O)CN(C(=O)c2cnn([C@H]3CC[C@H](CC(=O)O)CC3)c2C(F)(F)F)[C@H]2C[C@@H]3[C@H](C2)C3(C)C)c(Cl)c1", "note": "[Example 750, (trans-4-(4-((2-(2,6-dichloro-4-methylphenyl)-2-oxoethyl)((1R,3r,5S)-6,6-dimethylbicyclo[3.1.0]hex-3-yl)carbamoyl)-5-(trifluoromethyl)-1H-pyrazol-1-yl)cyclohexyl)acetic acid]", "values": [{"measurement": "IC50", "value": 1.58, "unit": "nM"}]}
{"molecule": "Cc1cc(Cl)c(C(=O)CN(CC2(F)CCCC2)C(=O)c2cnn([C@H]3CC[C@](C)(C(=O)O)CC3)c2C(F)(F)F)c(Cl)n1", "note": "[Example 751, trans-4-(4-((2-(2,4-dichloro-6-methyl-3-pyridinyl)-2-oxoethyl)((1-fluorocyclopentyl)methyl)carbamoyl)-5-(trifluoromethyl)-1H-pyrazol-1-yl)-1-methylcyclohexanecarboxylic acid]", "values": [{"measurement": "IC50", "value": 9.33, "unit": "nM"}]}
{"molecule": "CC(C)CCN(CC(=O)c1c(Cl)cccc1Cl)C(=O)c1cnn([C@H]2CC[C@](C)(C(=O)O)CC2)c1C(F)(F)F", "note": "[Example 752, trans-4-(4-((2-(2,6-dichlorophenyl)-2-oxoethyl)(3-methylbutyl)carbamoyl)-5-(trifluoromethyl)-1H-pyrazol-1-yl)-1-methylcyclohexanecarboxylic acid]", "values": [{"measurement": "IC50", "value": 4.79, "unit": "nM"}]}
{"molecule": "COc1ncc(Cl)c(C(=O)CN(CC(C)(C)C)C(=O)c2cnn([C@H]3CC[C@](C)(C(=O)O)CC3)c2C(F)(F)F)c1Cl", "note": "[Example 753, trans-4-(4-((2-(3,5-dichloro-2-methoxy-4-pyridinyl)-2-oxoethyl)(2,2-dimethylpropyl)carbamoyl)-5-(trifluoromethyl)-1H-pyrazol-1-yl)-1-methylcyclohexanecarboxylic acid]", "values": [{"measurement": "IC50", "value": 25.1, "unit": "nM"}]}
{"molecule": "O=C(O)C[C@H]1CC[C@H](n2ncc(C(=O)N(CC(=O)c3c(Cl)cncc3Cl)Cc3cc(F)cc(F)c3)c2C(F)(F)F)CC1", "note": "[Example 755, (trans-4-(4-((2-(3,5-dichloro-4-pyridinyl)-2-oxoethyl)(3,5-difluorobenzyl)carbamoyl)-5-(trifluoromethyl)-1H-pyrazol-1-yl)cyclohexyl)acetic acid]", "values": [{"measurement": "IC50", "value": 2.34, "unit": "nM"}]}
{"molecule": "C[C@@H]1C[C@@H](n2ncc(C(=O)N(CC(=O)c3c(Cl)cncc3Cl)CC3CC(C)(C)C3)c2C(F)(F)F)CC[C@@H]1C(=O)O", "note": "[Example 756, (1S,2R,4S)-4-(4-((2-(3,5-dichloro-4-pyridinyl)-2-oxoethyl)((3,3-dimethylcyclobutyl)methyl)carbamoyl)-5-(trifluoromethyl)-1H-pyrazol-1-yl)-2-methylcyclohexanecarboxylic acid]", "values": [{"measurement": "IC50", "value": 2.57, "unit": "nM"}]}
{"molecule": "Cc1cc(C)c(C(=O)CN(C(=O)c2cnn([C@H]3CC[C@](C)(C(=O)O)CC3)c2C(F)(F)F)[C@H]2C[C@@H]3[C@H](C2)C3(C)C)c(Cl)n1", "note": "[Example 757, trans-4-(4-((2-(2-chloro-4,6-dimethyl-3-pyridinyl)-2-oxoethyl)((1R,3r,5S)-6,6-dimethylbicyclo[3.1.0]hex-3-yl)carbamoyl)-5-(trifluoromethyl)-1H-pyrazol-1-yl)-1-methylcyclohexanecarboxylic acid]", "values": [{"measurement": "IC50", "value": 7.94, "unit": "nM"}]}
{"molecule": "Cc1ncc(Cl)c(C(=O)CN(C(=O)c2cnn([C@H]3CC[C@](C)(C(=O)O)CC3)c2C(F)(F)F)[C@H]2C[C@@H]3[C@H](C2)C3(C)C)c1Cl", "note": "[Example 758, trans-4-(4-((2-(3,5-dichloro-2-methyl-3-pyridinyl)-2-oxoethyl)((1R,3r,5S)-6,6-dimethylbicyclo[3.1.0]hex-3-yl)carbamoyl)-5-(trifluoromethyl)-1H-pyrazol-1-yl)-1-methylcyclohexanecarboxylic acid]", "values": [{"measurement": "IC50", "value": 3.55, "unit": "nM"}]}
{"molecule": "CC1(CN(CC(=O)c2c(Cl)cccc2Cl)C(=O)c2cnn([C@H]3CC[C@](C)(C(=O)O)CC3)c2C(F)(F)F)CC1", "note": "[Example 759, trans-4-(4-((2-(2,6-dichlorophenyl)-2-oxoethyl)((1-methylcyclopropyl)methyl)carbamoyl)-5-(trifluoromethyl)-1H-pyrazol-1-yl)-1-methylcyclohexanecarboxylic acid]", "values": [{"measurement": "IC50", "value": 3.72, "unit": "nM"}]}
{"molecule": "CC1(CN(CC(=O)c2c(Cl)cccc2Cl)C(=O)c2cnn([C@H]3CC[C@](C)(C(=O)O)CC3)c2C(F)(F)F)CCC1", "note": "[Example 760, trans-4-(4-((2-(2,6-dichlorophenyl)-2-oxoethyl)((1-methylcyclobutyl)methyl)carbamoyl)-5-(trifluoromethyl)-1H-pyrazol-1-yl)-1-methylcyclohexanecarboxylic acid]", "values": [{"measurement": "IC50", "value": 2.4, "unit": "nM"}]}
{"molecule": "Cc1cc(Cl)c(C(=O)CN(Cc2cc(F)cc(F)c2)C(=O)c2cnn([C@H]3CC[C@@H](C(=O)O)CC3)c2C(F)(F)F)c(Cl)n1", "note": "[Example 761, cis-4-(4-((2-(2,4-dichloro-6-methyl-3-pyridinyl)-2-oxoethyl)(3,5-difluorobenzyl)carbamoyl)-5-(trifluoromethyl)-1H-pyrazol-1-yl)cyclohexanecarboxylic acid]", "values": [{"measurement": "IC50", "value": 7.94, "unit": "nM"}]}
{"molecule": "Cc1cc(Cl)c(C(=O)CN(Cc2cc(F)cc(F)c2)C(=O)c2cnn([C@H]3CC[C@@](C)(C(=O)O)CC3)c2C(F)(F)F)c(Cl)n1", "note": "[Example 762, trans-4-(4-((2-(2,4-dichloro-6-methyl-3-pyridinyl)-2-oxoethyl)(3,5-difluorobenzyl)carbamoyl)-5-(trifluoromethyl)-1H-pyrazol-1-yl)-1-methylcyclohexanecarboxylic acid]", "values": [{"measurement": "IC50", "value": 5.37, "unit": "nM"}]}
{"molecule": "CC1(C)[C@@H]2C[C@H](N(CC(=O)c3c(Cl)ccc(F)c3Cl)C(=O)c3cnn([C@H]4CC[C@](C)(C(=O)O)CC4)c3C(F)(F)F)C[C@@H]21", "note": "[Example 763, trans-4-(4-((2-(2,6-dichloro-3-fluorophenyl)-2-oxoethyl)((1R,3r,5S)-6,6-dimethylbicyclo[3.1.0]hex-3-yl)carbamoyl)-5-(trifluoromethyl)-1H-pyrazol-1-yl)-1-methylcyclohexanecarboxylic acid]", "values": [{"measurement": "IC50", "value": 1.62, "unit": "nM"}]}
{"molecule": "CC(C)(C)CN(CC(=O)c1c(Cl)ccc(F)c1Cl)C(=O)c1cnn([C@H]2CC[C@](C)(C(=O)O)CC2)c1C(F)(F)F", "note": "[Example 764, trans-4-(4-((2-(2,6-dichloro-3-fluorophenyl)-2-oxoethyl)(2,2-dimethylpropyl)carbamoyl)-5-(trifluoromethyl)-1H-pyrazol-1-yl)-1-methylcyclohexanecarboxylic acid]", "values": [{"measurement": "IC50", "value": 4.37, "unit": "nM"}]}
{"molecule": "CC(C)CCN(CC(=O)c1c(Cl)cncc1Cl)C(=O)c1cnn([C@H]2C[C@@H]3[C@H](C2)[C@@H]3C(=O)O)c1C(F)(F)F", "note": "[Example 765, (1R,3r,5S,6r)-3-(4-((2-(3,5-dichloro-4-pyridinyl)-2-oxoethyl)(3-methylbutyl)carbamoyl)-5-(trifluoromethyl)-1H-pyrazol-1-yl)bicyclo[3.1.0]hexane-6-carboxylic acid]", "values": [{"measurement": "IC50", "value": 245, "unit": "nM"}]}
{"molecule": "C[C@@H]1C[C@@H](n2ncc(C(=O)N(CCC(F)(F)F)CC(=O)c3c(Cl)cncc3Cl)c2C(F)(F)F)CC[C@@H]1C(=O)O", "note": "[Example 766, (1S,2R,4S)-4-(4-((2-(3,5-dichloro-4-pyridinyl)-2-oxoethyl)(3,3,3-trifluoropropyl)carbamoyl)-5-(trifluoromethyl)-1H-pyrazol-1-yl)-2-methylcyclohexanecarboxylic acid]", "values": [{"measurement": "IC50", "value": 32.4, "unit": "nM"}]}
{"molecule": "C[C@H]1C[C@H](n2ncc(C(=O)N(CCC(F)(F)F)CC(=O)c3c(Cl)cncc3Cl)c2C(F)(F)F)CC[C@H]1C(=O)O", "note": "[Example 767, (1R,2S,4R)-4-(4-((2-(3,5-dichloro-4-pyridinyl)-2-oxoethyl)(3,3,3-trifluoropropyl)carbamoyl)-5-(trifluoromethyl)-1H-pyrazol-1-yl)-2-methylcyclohexanecarboxylic acid]", "values": [{"measurement": "IC50", "value": 372, "unit": "nM"}]}
{"molecule": "Cc1ncc(Cl)c(C(=O)CN(Cc2cc(F)cc(F)c2)C(=O)c2cnn([C@H]3CC[C@](C)(C(=O)O)CC3)c2C(F)(F)F)c1Cl", "note": "[Example 768, trans-4-(4-((2-(3,5-dichloro-2-methyl-4-pyridinyl)-2-oxoethyl)(3,5-difluorobenzyl)carbamoyl)-5-(trifluoromethyl)-1H-pyrazol-1-yl)-1-methylcyclohexanecarboxylic acid]", "values": [{"measurement": "IC50", "value": 3.98, "unit": "nM"}]}
{"molecule": "O=C(CN(CC1(F)CCCC1)C(=O)c1cnn([C@H]2C[C@@H]3[C@H](C2)[C@@H]3C(=O)O)c1C(F)(F)F)c1c(Cl)cccc1Cl", "note": "[Example 769, (1R,3r,5S,6s)-3-(4-((2-(2,6-dichlorophenyl)-2-oxoethyl)((1-fluorocyclopentyl)methyl)carbamoyl)-5-(trifluoromethyl)-1H-pyrazol-1-yl)bicyclo[3.1.0]hexane-6-carboxylic acid]", "values": [{"measurement": "IC50", "value": 18.6, "unit": "nM"}]}
